{"source": "paper PMC7363588", "about": "“Mapping of the FGF14:Nav1.6 complex interface reveals FLPK as a functionally active peptide modulating excitability” (Physiological Reports, 2020)", "system": "Nav1.6 in the presence of FGF14-ΔNT-GFP", "test": "Whole-cell patch-clamp, HEK-Nav1.6 cells expressing FGF14-ΔNT-GFP", "type": "cell-based, human", "conditions": "50 μM FLPK", "text": "Plasmids used in this study derived from the following clones: human FGF14‐1b isoform (accession number: NM_175929.2) and human Nav1.6 (accession number: NM_014191.3). The CLuc‐FGF14, CD4‐Nav1.6‐NLuc, constructs and the pcDNA3.1 vector (Invitrogen, Carlsbad, CA) were engineered and characterized as previously described (Goetz et al., 2009; Shavkunov et al., 2012,2013,2015; Ali et al., 2016, 2018; Wadsworth et al., 2019). The plasmid pGL3 expressing full length Firefly (Photinus pyralis) luciferase was a gift from Dr. P. Sarkar (Department of Neurology, UTMB). For protein purification studies, cDNAs encoding FGF14‐1b (accession number NP_787125; aa 64–252) or the C‐terminal tail of Nav1.6 (accession number #NP_001171455; aa 1756–1939) were subcloned into suitable pET bacterial expression vectors (pET28a‐FGF14; pET30a‐Nav1.6) with a 6X His‐tag at the N‐terminal site; these plasmids were a gift of Dr. Moosa Mohammadi (NYU, Langone Medical Center). The mutation coding for FGF14^V160A was generated by site‐directed mutagenesis and PCR using FGF14‐1b as a template described previously (Ali et al., 2016). For electrophysiological studies FGF14‐GFP (human) and FGF14‐ΔNT‐GFP (human) were cloned into the GFP plasmid (pQBI‐fC2; Quantum Biotechnology Inc., Montreal, Canada) as previously described.\nHEK293 cells were maintained in DMEM and F‐12 (Invitrogen, Carlsbad, CA), supplemented with 0.05% glucose, 0.5 mM pyruvate, 10% fetal bovine serum, 100 units/ml penicillin, and 100 µg/ml streptomycin (Invitrogen), and incubated at 37 °C with 5% CO2. HEK293 cells stably expressing the human Nav1.6 channel (hereafter referred to as HEK‐Nav1.6 cells) were maintained similarly except for the addition of 500 μg/ml G418 (Invitrogen) to maintain stable Nav1.6 expression. Cells were transfected at 80%–90% confluence with equal amount (1 μg each) of plasmid pairs using Lipofectamine 2000 (Invitrogen) according to manufacturer's instructions. HEK‐Nav1.6 cells were washed and replated at very low density prior to electrophysiological recordings (Ali et al., 2016, 2018; Scala et al., 2018; Wadsworth et al., 2019).\nHEK‐Nav1.6 cells transfected with GFP or FGF14‐GFP were plated at low density on glass cover slips for 3–4 hr and subsequently transferred to the recording chamber. Recordings were performed at room temperature (20–22°C) 24 hr posttransfection using a MultiClamp 700B amplifier (Molecular Devices, Sunnyvale, CA). The composition of recording solutions consisted of the following salts; extracellular (mM): 140 NaCl, 3 KCl, 1 MgCl2, 1 CaCl2, 10 HEPES, 10 glucose, pH 7.3; intracellular (mM): 130 CH3O3SCs, 1 EGTA, 10 NaCl, 10 HEPES, pH 7.3. Membrane capacitance and series resistance were estimated by the dial settings on the amplifier and compensated for electronically by 70%–75%. Data were acquired at 20 kHz and filtered at 5 kHz prior to digitization and storage. All experimental parameters were controlled by Clampex 9.2 software (Molecular Devices) and interfaced to the electrophysiological equipment using a Digidata 1,200 analog‐digital interface (Molecular Devices). Voltage‐dependent inward currents for HEK‐Nav1.6 cells were evoked by depolarization to test potentials between −100 mV and +60 mV from a holding potential of −70 mV followed by a voltage prestep pulse of −120 mV (Nav1.6). Steady‐state (fast) inactivation of Nav channels was measured with a paired‐pulse protocol. From the holding potential, cells were stepped to varying test potentials between −120 mV (Nav1.6) and +20 mV (prepulse) prior to a test pulse to −20 mV.\nCurrent densities were obtained by dividing Na^+ current (INa) amplitude by membrane capacitance. Current–voltage relationships were generated by plotting current density as a function of the […]. Conductance (GNa) was calculated by the following equation: GNa=INa/Vm‐Erev where INa ^+ is the current amplitude at voltage Vm, and Erev is the Na^+ reversal potential. […]", "note": "“Also recorded” adds a separate entry of the source. Marks after values point to notes of the source that are not given here. Peptide text beside a SMILES is read from it."}
{"smiles": "CC(=O)N[C@@H](Cc1ccccc1)C(=O)N[C@@H](CC(C)C)C(=O)N1CCC[C@H]1C(=O)N[C@@H](CCCCN)C(N)=O", "note": "[FLPK] (Ac-FLPK-NH2)", "values": [{"measurement": "effect on Nav1.6 currents in absence of FGF14 N-terminal domain", "setting": "FGF14-ΔNT-GFP", "result": "insensitive to FLPK; also recorded: no effects on any other parameters associated with FGF14‐GFP regulation; also recorded: unaffected by FLPK"}, {"measurement": "Tau (τ), decay time constant of I Na", "setting": "ΔNT-FGF14-GFP, at −10 mV, mean ± SEM (n = 11), DMSO 1.091 ± 0.07", "result": "1.137 ± 0.08 (11) ms"}, {"measurement": "Kact", "setting": "ΔNT-FGF14-GFP, mean ± SEM (n = 11), DMSO 4.61 ± 0.3", "result": "1.63 ± 0.23 (11) mV"}, {"measurement": "Kinact", "setting": "ΔNT-FGF14-GFP, mean ± SEM (n = 11), DMSO 6.4 ± 0.44", "result": "6.75 ± 0.32 (11) mV"}, {"measurement": "Activation (V1/2)", "setting": "ΔNT-FGF14-GFP, mean ± SEM (n = 11), DMSO –21.2 ± 0.36, p < .001", "result": "–37.43 ± 0.3 (11) ^ l , ^ o,p,q mV"}, {"measurement": "Steady-state Inactivation (V1/2)", "setting": "ΔNT-FGF14-GFP, mean ± SEM (n = 11), DMSO –70.2 ± 0.53", "result": "–68.3 ± 0.34 (11) ^o,p,q mV"}]}
